These results are taken from paper PMC6429222, “The Oligomeric State of the Plasma Membrane H^+-ATPase from Kluyveromyces lactis” (Molecules, 2019).

Series [1] has as its target T1, plasma membrane H^+-ATPase hexamer, aggregated (large MAS, Peak 1) (Kluyveromyces lactis, UniProt P49380).
T1 construct: gene PMA1; Superose 6 Peak 1, aggregated hexamers; monomer ~100 kDa; no tag
T1 sequence (P49380 1-899): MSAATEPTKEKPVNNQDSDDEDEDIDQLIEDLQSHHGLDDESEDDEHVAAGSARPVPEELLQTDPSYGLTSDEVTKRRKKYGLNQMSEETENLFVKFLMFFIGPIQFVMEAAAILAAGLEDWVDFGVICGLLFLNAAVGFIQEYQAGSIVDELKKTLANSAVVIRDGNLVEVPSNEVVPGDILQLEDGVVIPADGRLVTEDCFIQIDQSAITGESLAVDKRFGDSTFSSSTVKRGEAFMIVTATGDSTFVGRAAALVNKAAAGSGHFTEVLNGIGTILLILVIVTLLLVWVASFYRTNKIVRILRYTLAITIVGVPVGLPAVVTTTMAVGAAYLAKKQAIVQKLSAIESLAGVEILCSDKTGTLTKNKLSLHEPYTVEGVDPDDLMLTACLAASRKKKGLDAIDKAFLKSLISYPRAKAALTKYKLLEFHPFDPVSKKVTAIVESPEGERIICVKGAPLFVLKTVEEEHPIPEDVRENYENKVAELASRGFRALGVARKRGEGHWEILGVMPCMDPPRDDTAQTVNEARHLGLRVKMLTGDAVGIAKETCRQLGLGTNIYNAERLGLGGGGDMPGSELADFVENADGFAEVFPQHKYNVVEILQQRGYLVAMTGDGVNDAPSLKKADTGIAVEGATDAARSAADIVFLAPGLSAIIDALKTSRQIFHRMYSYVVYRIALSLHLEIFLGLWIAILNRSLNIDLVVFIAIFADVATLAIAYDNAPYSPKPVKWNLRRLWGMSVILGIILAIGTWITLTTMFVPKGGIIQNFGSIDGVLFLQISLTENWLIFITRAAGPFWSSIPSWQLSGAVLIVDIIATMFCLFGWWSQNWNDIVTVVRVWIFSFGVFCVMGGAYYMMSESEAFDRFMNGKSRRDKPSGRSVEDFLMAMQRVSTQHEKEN
Kind of series: intrinsic Trp fluorescence quenching titration, Hill-type fit. It counts as binding.

The target of series [2] is T2, plasma membrane H^+-ATPase hexamer, free (small MAS, Peak 2) (Kluyveromyces lactis, UniProt P49380).
T2 construct: gene PMA1; Superose 6 Peak 2, mainly free hexamers with minor monomer, dimer, tetramer; monomer ~100 kDa; no tag
T2 sequence (P49380 1-899): T1 sequence (P49380 1-899)
The series is described as above. It counts as binding.

Substrate in the series “purified protein”: Nc1ncnc2c1ncn2[C@@H]1O[C@H](COP(=O)(O)OP(=O)(O)OP(=O)(O)O)[C@@H](O)[C@H]1O
Nature of the series: purified protein. It counts as biochemical, Kluyveromyces lactis. The note with it: 25 °C, cooperative.

Series [3] concerns the molecule itself. Nature of the series: native gel or EMSA; BN-PAGE of SEC Peak 1 fractions (23-26); 4-15% gradient gel with 0.1 M trehalose; sample buffer 25 mM imidazole, 0.3 M trehalose, 0.25% DDM, 0.025% Coomassie blue, pH 7.0; 4 °C; silver stain. On the technique in general: In EMSA bound probe runs differently from free probe, usually more slowly.
Series [4] concerns the molecule itself. Kind of series: native gel or EMSA; BN-PAGE of SEC Peak 2 fractions (33-37); 4-15% gradient gel with 0.1 M trehalose; sample buffer 25 mM imidazole, 0.3 M trehalose, 0.25% DDM, 0.025% Coomassie blue, pH 7.0; 4 °C; silver stain.

“And” between values parts separate entries of the source, which are not always exact repeats. Equal entries are not always repeated.

As for `Nc1ncnc2c1ncn2[C@@H]1O[C@H](COP(=O)(O)OP(=O)(O)O)[C@@H](O)[C@H]1O` [ADP], the Kd stood at 136 ± 7.8 µM in series [1] and 190 ± 13.9 µM in series [2].
The corresponding values for `Nc1ncnc2c1ncn2[C@@H]1O[C@H](COP(=O)(O)OP(=O)(O)CP(=O)(O)O)[C@@H](O)[C@H]1O` [AMP-PCP] are 73.3 ± 5.8 µM and 106 ± 12.6 µM.

B1: plasma membrane H^+-ATPase hexamer, aggregated (large MAS, Peak 1) (Kluyveromyces lactis NRRL Y-1140) (protein)
chain: T1 sequence (P49380 1-899)
notes: Superose 6 Peak 1, aggregated hexamers; monomer ~100 kDa; no tag
For the molecule B1, the K0.5 in the series “purified protein” (Hill n = 1.98 ± 0.21) came to 329 ± 19 µM.

B2: plasma membrane H^+-ATPase hexamer, free (small MAS, Peak 2) (Kluyveromyces lactis NRRL Y-1140) (protein)
chain: T1 sequence (P49380 1-899)
notes: Superose 6 Peak 2, mainly free hexamers with minor monomer, dimer, tetramer; monomer ~100 kDa; no tag
As for B2, the K0.5 in the series “purified protein” (Hill n = 1.82 ± 0.22) was determined as 364 ± 28 µM.

B3: plasma membrane H^+-ATPase from Kluyveromyces lactis (enzyme, UniProt P49380 1-899, looked up)
chain: T1 sequence (P49380 1-899)
notes: plasma membrane H^+-ATPase (Pma1) of Kluyveromyces lactis, endogenous enzyme; monomer band of ~100 kDa on SDS-PAGE; also called Pma1; H^+-ATPase hexamer; source: also in isolated plasma membranes treated with DDM
As to B3, the “stoichiometry N” value in series [3] was 6; in series [4], 2 and 4.

The term Kd denotes the concentration at which binding is half-saturated. High values mean a looser complex, low ones a tighter complex. By stoichiometry N is commonly meant the number of molecules, sites or subunits per partner or assembly.
